Experimental data: patent US9566312B2, “Cyclic peptides and use as medicines” (priority 2012, dated 2017)
Like-named read-outs stand apart in the source and are kept apart here. Starred links: 1 amine or outer side, 2 acyl side, 3 side chain; linkers in the order of their positions; H or OH if unused. Non-standard residues stand in square brackets, D forms with d. Residues, ends and D or L forms follow the SMILES beside them. X58 = C[C@H](COCCN1CCN(C2CCC2)CC1)[C@@H](C(=O)[*:2])N(C)[*:1]; X63 = C[C@H](CN1CCN(C2COC2)CC1)[C@@H](C(=O)[*:2])N(C)[*:1]; X19 = COCCN1CCN(C[C@H](C)[C@@H](C(=O)[*:2])N(C)[*:1])CC1; X8 = COCCN1CCN(C[C@@H](C)[C@@H](C(=O)[*:2])N(C)[*:1])CC1; NMe(dihydroBmt) = CCCC[C@@H](C)[C@@H](O)[C@H](NC)C(=O)O; X14 = C[C@H](CN1CCN(C)CC1)[C@@H](C(=O)[*:2])N(C)[*:1]; MeBmt = C/C=C/C[C@@H](C)[C@@H](O)[C@H](NC)C(=O)O; NMeL = CN[C@@H](CC(C)C)C(=O)O; NMeV = CN[C@H](C(=O)O)C(C)C; dNMeA = CN[C@H](C)C(=O)O; Abu = CC[C@H](N)C(=O)O

Tests used:
cyclophilin A (CypA) = cyclophilin A (CypA) (Homo sapiens (Human), UniProt P62937); experiment: Inhibitor binding to cyclophilin proteins by SPR, CypA; design: unit not given here; conditions: 1:1 binding model;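 further: Single-cycle kinetics on a Biacore T200, compound injected at several concentrations for 1 min each at 50 µL/min, then 10 min dissociation, in HEPES pH 7.4 buffer with 3% DMSO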
cyclophilin B (CypB) = cyclophilin B (CypB) (Homo sapiens (Human), UniProt P23284); experiment: Inhibitor binding to cyclophilin proteins by SPR, CypB; design: unit not given here; conditions: 1:1 binding model
How it was run: (§1)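 A 1:1 model fitted to single-cycle kinetic SPR data gave association and dissociation rates and KD. Compound series injected for 1 min each at 50 μL/min, then 10 min dissociation. Running buffer HEPES pH 7.4 with NaCl, P20 and 3% DMSO; target protein was biotinylated avi-tagged cyclophilin on a CAPture surface.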

CypF = CypF (Homo sapiens (Human), UniProt P30405); experiment: Inhibitor binding to cyclophilin proteins by SPR, CypF; conditions: 1:1 binding model
How it was run: as §1

[1] = test system: genotype 1b subgenomic HCV replicon in Huh7.5 cells; format: cell-based, hepatitis C virus; conditions: read-out: RPLN-1b IC50
How it was run: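 Replicon inhibition read as renilla luciferase signal versus DMSO controls after 72 h incubation, in Huh7.5 cells harbouring a genotype 1b subgenomic replicon; medium phenol red-free DMEM lacking G418. CC50 determined in parallel via Cell Titer-Glo.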

[2] = test system: peripheral blood mononuclear cells (PBMC); experiment: Anti-proliferative or immunosuppressive activity, BrdU incorporation in PHA-stimulated PBMC; format: cell-based; conditions: PHA 3 μg/ml, 60 hour compound treatment; read-out: EMV PBMC IC50
How it was run: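 BrdU ELISA read-out of DNA synthesis in freshly isolated PBMCs (two donors, 30,000 cells/well, X-VIVO 15). T-cell proliferation triggered with phytohemagglutinin at 3 μg/ml.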

[3] = target: organic anion transporting polypeptide 1B1 (OATP1B1) (Homo sapiens (Human), UniProt Q9Y6L6); experiment: OATP assay in CHO-OATP1B1 cells;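 further: inhibition of probe substrate uptake into the cells, ten minutes exposure, accumulated substrate read by fluorescence once cells were lysed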
CYP3A4 = CYP3A4 (Homo sapiens (Human), UniProt P08684); experiment: Time-dependent inhibition of CYP3A4;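 further: Two-step in vitro assay, kobs derived from residual CYP3A4 activity versus preincubation time per concentration, then kinact and KI by nonlinear fit of kobs against concentration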
Experimental: Method 5: Measuring Time-Dependent Inhibition of CYP3A4
The CYP3A4 time dependent inhibition potential of various inhibitors was determined by a two step in vitro assay. […] The inactivation rate constant (kobs) was obtained by plotting the activity remaining over pre-incubation time for each concentration of compound. The maximal inactivation rate (kinact) and the inactivation potency (KI) were calculated by non linear regression analysis of the inactivation rate constant (kobs) versus compound concentrations [I] curve according to the equation kobs=[kinact·[I]]/[KI+[I]]

[4] = genotype 1b replicon, 72 h incubation

Sequence of CypF (P30405 30-207): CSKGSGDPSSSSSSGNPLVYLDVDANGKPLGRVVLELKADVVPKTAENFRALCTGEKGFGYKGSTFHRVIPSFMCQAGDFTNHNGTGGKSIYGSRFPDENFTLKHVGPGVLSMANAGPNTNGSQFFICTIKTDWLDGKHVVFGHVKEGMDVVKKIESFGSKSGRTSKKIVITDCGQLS
Sequence of CYP3A4 (P08684 whole entry): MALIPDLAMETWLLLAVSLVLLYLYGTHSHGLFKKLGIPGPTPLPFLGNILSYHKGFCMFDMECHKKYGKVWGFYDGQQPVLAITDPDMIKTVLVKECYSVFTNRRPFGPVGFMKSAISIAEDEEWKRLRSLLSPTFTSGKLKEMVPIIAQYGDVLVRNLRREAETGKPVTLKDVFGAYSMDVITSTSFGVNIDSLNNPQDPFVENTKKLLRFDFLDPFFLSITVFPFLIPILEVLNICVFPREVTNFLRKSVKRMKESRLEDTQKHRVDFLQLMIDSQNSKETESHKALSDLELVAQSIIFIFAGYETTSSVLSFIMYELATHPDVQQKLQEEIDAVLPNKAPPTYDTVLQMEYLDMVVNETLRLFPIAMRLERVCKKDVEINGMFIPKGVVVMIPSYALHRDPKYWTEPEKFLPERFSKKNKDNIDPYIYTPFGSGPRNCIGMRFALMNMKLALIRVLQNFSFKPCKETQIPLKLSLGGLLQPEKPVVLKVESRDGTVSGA
Sequence of cyclophilin A (CypA) (P62937 whole entry): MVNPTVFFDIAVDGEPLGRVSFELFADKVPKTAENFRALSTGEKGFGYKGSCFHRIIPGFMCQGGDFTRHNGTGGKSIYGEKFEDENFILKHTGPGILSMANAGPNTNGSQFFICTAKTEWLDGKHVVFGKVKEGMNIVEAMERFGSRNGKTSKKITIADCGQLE
Sequence of cyclophilin B (CypB) (P23284 34-216): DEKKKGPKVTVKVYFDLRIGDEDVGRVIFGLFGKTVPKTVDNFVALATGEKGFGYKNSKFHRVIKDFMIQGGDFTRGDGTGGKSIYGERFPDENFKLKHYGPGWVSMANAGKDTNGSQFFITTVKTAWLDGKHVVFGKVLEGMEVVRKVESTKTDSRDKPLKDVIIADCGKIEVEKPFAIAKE
Sequence of organic anion transporting polypeptide 1B1 (OATP1B1) (Q9Y6L6 whole entry): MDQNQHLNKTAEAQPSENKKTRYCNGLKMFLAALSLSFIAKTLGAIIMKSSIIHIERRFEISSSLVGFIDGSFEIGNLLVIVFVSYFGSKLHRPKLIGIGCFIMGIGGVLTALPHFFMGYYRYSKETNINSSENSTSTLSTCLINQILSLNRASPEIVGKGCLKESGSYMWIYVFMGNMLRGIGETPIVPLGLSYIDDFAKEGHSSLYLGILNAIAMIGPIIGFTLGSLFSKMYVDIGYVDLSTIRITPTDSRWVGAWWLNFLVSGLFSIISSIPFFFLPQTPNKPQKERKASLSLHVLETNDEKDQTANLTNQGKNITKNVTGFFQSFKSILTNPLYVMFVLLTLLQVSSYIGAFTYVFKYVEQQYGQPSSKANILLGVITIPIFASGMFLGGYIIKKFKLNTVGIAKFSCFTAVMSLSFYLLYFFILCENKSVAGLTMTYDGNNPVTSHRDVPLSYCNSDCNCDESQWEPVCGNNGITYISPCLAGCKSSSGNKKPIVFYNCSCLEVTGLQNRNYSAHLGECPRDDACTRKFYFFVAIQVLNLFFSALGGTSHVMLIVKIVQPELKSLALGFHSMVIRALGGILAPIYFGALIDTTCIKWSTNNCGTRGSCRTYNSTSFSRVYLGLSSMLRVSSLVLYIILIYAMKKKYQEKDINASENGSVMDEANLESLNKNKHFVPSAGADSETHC

Compound | CypA Kd (cyclophilin A (CypA)) | CypB Kd (cyclophilin B (CypB)) | CypF Kd (CypF) | IC50 [1, 4] | IC50 [2] | IC50 [3] | Ki (CYP3A4) | NIM TDI kinact/Ki (CYP3A4; probe substrate midazolam) | IC50 [1] | KI (inactivation) (CYP3A4)
CCCC[C@@H](C)[C@@H](O)[C@H]1C(=O)N[C@@H](CC)C(=O)N(C)[C@H](C)C(=O)N(C)[C@@H]([C@@H](C)CN2CCN(CCOC)CC2)C(=O)N[C@@H](C(C)C)C(=O)N(C)[C@@H](CC(C)C)C(=O)N[C@@H](C)C(=O)N[C@H](C)C(=O)N(C)[C@@H](CC(C)C)C(=O)N(C)[C@@H](CC(C)C)C(=O)N(C)[C@@H](C(C)C)C(=O)N1C [Compound 2.17.6, 1-dihydro-3-[D-Ala]-4[(2S,3S)-2-Amino-4-[4-(2-methoxy-ethyl)-piperazin-1-yl]-3-methyl-butanoyl]-cyclosporin] (cyclo(A[dA][NMeL][NMeL][NMeV][NMe(dihydroBmt)][Abu][dNMeA][X19]V[NMeL])) | 0.9 | 0.6 | 0.5 nM | 20 nM | 14600 nM | 3300 nM | > 50000 nM | – | – | –
C/C=C/C[C@@H](C)[C@@H](O)[C@H]1C(=O)N[C@@H](CC)C(=O)N(C)[C@H](C)C(=O)N(C)[C@@H]([C@H](C)COCCN2CCN(C3CCC3)CC2)C(=O)N[C@@H](C(C)C)C(=O)N(C)[C@@H](CC(C)C)C(=O)N[C@@H](C)C(=O)N[C@H](C)C(=O)N(C)[C@@H](CC(C)C)C(=O)N(C)[C@@H](CC(C)C)C(=O)N(C)[C@@H](C(C)C)C(=O)N1C [Compound 2.8.8, 3-[D-Ala]-4-[(2S,3S)-4-(2-(4-cyclobutylpiperazin-1-yl)ethoxy)-3-methyl-2-(methylamino)butanoyl]-cyclosporin] (cyclo(A[dA][NMeL][NMeL][NMeV][MeBmt][Abu][dNMeA][X58]V[NMeL])) | 0.5 | 0.5 | 0.3 nM | 35 nM | 18900 nM | 3500 nM | – | 12 M⁻¹ s⁻¹ | – | –
C/C=C/C[C@@H](C)[C@@H](O)[C@H]1C(=O)N[C@@H](CC)C(=O)N(C)[C@H](C)C(=O)N(C)[C@@H]([C@H](C)CN2CCN(C3COC3)CC2)C(=O)N[C@@H](C(C)C)C(=O)N(C)[C@@H](CC(C)C)C(=O)N[C@@H](C)C(=O)N[C@H](C)C(=O)N(C)[C@@H](CC(C)C)C(=O)N(C)[C@@H](CC(C)C)C(=O)N(C)[C@@H](C(C)C)C(=O)N1C [Compound 2.5.11] (cyclo(A[dA][NMeL][NMeL][NMeV][MeBmt][Abu][dNMeA][X63]V[NMeL])) | 1.6 | 1.2 | 1 nM | 50 nM | 13900 nM | 1170 nM | > 50000 nM | – | – | –
C/C=C/C[C@@H](C)[C@@H](O)[C@H]1C(=O)N[C@@H](CC)C(=O)N(C)[C@H](C)C(=O)N(C)[C@@H]([C@H](C)CN2CCN(C)CC2)C(=O)N[C@@H](C(C)C)C(=O)N(C)[C@@H](CC(C)C)C(=O)N[C@@H](C)C(=O)N[C@H](C)C(=O)N(C)[C@@H](CC(C)C)C(=O)N(C)[C@@H](CC(C)C)C(=O)N(C)[C@@H](C(C)C)C(=O)N1C [Compound 2.5.29, 3-[D-Ala]-4-[(2S,3R)-3-methyl-2-(methylamino)-4-(4-methylpiperazin-1-yl)butanoyl]-cyclosporin] (cyclo(A[dA][NMeL][NMeL][NMeV][MeBmt][Abu][dNMeA][X14]V[NMeL])) | 1.5 | 0.7 | 0.6 nM | 56 nM | 12200 nM | 7900 nM | > 50000 nM | – | – | –
C/C=C/C[C@@H](C)[C@@H](O)[C@H]1C(=O)N[C@@H](CC)C(=O)N(C)[C@H](C)C(=O)N(C)[C@@H]([C@H](C)CN2CCN(CCOC)CC2)C(=O)N[C@@H](C(C)C)C(=O)N(C)[C@@H](CC(C)C)C(=O)N[C@@H](C)C(=O)N[C@H](C)C(=O)N(C)[C@@H](CC(C)C)C(=O)N(C)[C@@H](CC(C)C)C(=O)N(C)[C@@H](C(C)C)C(=O)N1C [Compound 2.5.10, 3-[D-Ala]-4[(2S,3R)-2-Amino-4-[4-(2-methoxy-ethyl)-piperazin-1-yl]-3-methyl-butanoyl]-cyclosporin] (cyclo([MeBmt][Abu][dNMeA][X8]V[NMeL]A[dA][NMeL][NMeL][NMeV])) | 1.2 | 1.2 | 0.9 nM | – | 16800 nM | 6100 nM | – | – | 39 nM | > 50000 nM
